melting point [°C]	SMILES
193 to 195	Cn1cccc1C(=O)C(C#N)C(=O)Nc1ccc([N+](=O)[O-])cc1 (configuration not stated)
188 to 192	O=C(O)C1=Cc2cc(I)ccc2NC1C(F)(F)F (configuration not stated)
55 to 56.5	CSc1ccc(OCCO)cc1
225 to 227	Cc1nc(O)cc2sccc12
45 to 45.5	CCOC(=O)c1ccc(C(F)(F)F)c(OC2CCOC2)n1 (configuration not stated)
72 to 74	CS(=O)(=O)OC[C@@H]1CCC(=O)N1
190 to 191	CC(N)Cn1ncc2ccc3oc(C(=O)NCC(C)O)cc3c21 (configuration not stated)
158 to 160	Cc1ccc(-c2c(C)ccn2-c2ccc(S(C)(=O)=O)cc2)cc1
168 to 170	Cc1cc(COc2ccc(Oc3ccc(Cl)cc3)cc2)n(O)c(=O)c1
213 to 216	OC1CCCN(CCCOc2ccc3cc(-c4n[nH]c5cc(-c6ccccc6)sc45)[nH]c3c2)C1 (configuration not stated)
59 to 61	CC(C)c1nc(C2CCCCC2)cc(-c2ccc(F)cc2)c1C=O
144 to 146	COC(=O)Cn1c(C(=O)N(CCC2CCCCC2)c2nc(-c3cc(OC)c(C)cc3OC)cs2)cc2ccccc21
204 to 206	CCCCCC(CC(=O)Nc1cc(C(N)=O)ccc1C(C)(C)C)c1ccc(C(=O)O)cc1OC (configuration not stated)
58 to 62	CC(NC(=S)NCC(COC(=O)C(C)(C)C)Cc1ccccc1)c1ccc(NS(C)(=O)=O)cc1 (configuration not stated)
84 to 85	O=C(Oc1ccccc1)N1CCC(S(=O)(=O)c2ccccc2)C1 (configuration not stated)
86	Cc1cc(-n2cncn2)c2cccc(OCc3c(Cl)ccc(S(=O)(=O)N4CCC[C@H]4C(=O)NCCCN4CCCC4)c3Cl)c2n1
98 to 99	COc1ccc(CC(=O)NOCc2ccccc2)cc1
251 to 253	COc1ccc2nc3c(cc2c1)c(N)nn3CC(=O)N(C)C
225 to 226	O=C(N[C@H](Cc1ccc(C(F)(F)F)cc1)[C@@H](O)c1cccc(Cl)n1)c1ccc(F)c2ccccc12 (racemic)
75.5 to 76.5	COc1cc(C(C)C)c2c(c1)S(=O)(=O)N(COP(=O)(OCc1ccccc1)OCc1ccccc1)C2=O
89 to 90	CC(=O)CCCc1c[nH]c2ccccc12
158 to 167	CC(=O)Oc1cc2ccc(S(=O)(=O)Cl)cc2cc1OC(C)=O
283 to 286	Cn1nc(-c2ccc(C#N)cc2)cc(C(=O)N[C@H]2CC[C@H](C(=O)O)CC2)c1=O
150 to 152	CCOC(=O)C(F)=C(C)NC(=O)Nc1cc(C(=O)OC(C)C)c(Cl)cc1F

melting point [°C]	SMILES
117 to 119	CCc1nc2nccc(C)c2[nH]1
> 280	Cc1ccc(C(=O)Nc2cccnc2)c(Nc2ccc3cn[nH]c3c2)n1
86.5 to 88	CC(C)n1nc(C(Cl)C(=O)c2ccc(F)cc2)ccc1=O (configuration not stated)
> 280	O=c1[nH]cnc2c(Br)c(Cl)sc12
157 to 159	N#CCOc1ccc(-c2cc(O)c(SCCc3ccccc3)c(=O)o2)cc1
100	CCC(C)(C)NS(=O)(=O)c1ccc(CBr)cc1
129 to 131	CCOC(=O)C=Cc1ccccc1NC(=O)c1ccc(OCCCCc2ccccc2)cc1
163 to 165	CSc1c(Cl)c(O)nn1C
90 to 92	CC(C)(C)OC(=O)N1C(=O)c2ccccc2C1=O
113 to 116	CCCCc1nn(-c2cc(NC(=O)CC)ccc2Cl)c(=O)n1Cc1ccc(-c2ccccc2S(=O)(=O)NC(=O)c2ccccc2Oc2ccccc2)cc1
124 to 131	CC(C)(C)NC(=O)C(Cc1ccc(OCc2ccccc2)cc1)NC(=O)c1ccc(C(C)(C)C)cc1 (configuration not stated)
84 to 86	CSc1ccc(OC(C)c2ccnc3ncnn23)cc1 (configuration not stated)
188 to 189	NC(=O)NNC1=NC=Cc2ccccc2C1
138 to 140	Nc1ccsc1C(=O)NC/C=C\COc1cc(CN2CCCCC2)ccn1
85 to 88	Nc1cccc2c1CCN(C(=O)C(F)(F)F)CC2
207	O=C(Nc1cccc(S(=O)(=O)C(F)(F)F)c1)c1cnn2c(C(F)F)cc(-c3ccc(C(F)(F)F)cc3)nc12
180 to 182	CCOc1ccc(C(=O)Nc2ccccc2NC(=O)c2cccc(C(N)=NO)c2)cc1
62 to 64	Cc1cc(C)c(C2C(=O)CC(CC3CCOC3)CC2=O)c(C)c1 (configuration not stated)
236 to 238	COc1cc(C2c3cc4c(cc3C(N)C3COC(=O)C23)OCO4)cc(OC)c1O[Si](C)(C)C(C)(C)C (configuration not stated)
108 to 110	CC1CC(C)(C)C(=O)C(C(=O)c2ccc(OC(F)F)cc2[N+](=O)[O-])C1=O (configuration not stated)
70 to 71	Cc1cc([N+](=O)[O-])c(O)cc1Cl
88 to 90	CC(=C(c1ccc(F)cc1)c1ccc(F)cc1)P(c1ccccc1)c1ccccc1
118 to 120	COc1ccc2c(c1)CCC1CCN(C)C(=O)C(CC(C)NC(C)C)=C21 (configuration not stated)
139 to 141	Clc1ccc(Nc2nnc(OCc3ccncc3)c3ccccc23)cc1

melting point [°C]	SMILES
233 to 235	CC1CC2(NC(=O)NC2=O)c2cc(F)ccc2O1 (configuration not stated)
27 to 28	CN(C)CCCCCCOc1ccc(C(=O)CCc2ccccc2)cc1
260 to 264	COc1cc2c(cc1OCc1ccccc1)[nH]c1cc(-c3ccccc3Cl)c3c(c12)C(=O)NC3=O
136 to 137	O=C(O)CCc1oc(Oc2ccccc2)nc1-c1ccc(Cl)cc1
190	Cc1nc(-c2ccc(C(F)(F)F)cc2)sc1CSc1ccc(OCC(=O)O)cc1
174 to 175	O=C1c2cc(OCc3ccc4ccccc4n3)ccc2OCC1Oc1cccnc1 (configuration not stated)
203 to 205	NS(=O)(=O)c1cc(CCNC(=O)/C=C/c2cccs2)ccc1OCCOC(F)(F)F
82	CCCCCCCCCCCCCCCC[C@]1(CO)CC(=O)N1
134 to 138	Cc1c(N)ccc([N+](=O)[O-])c1Cl
85 to 87	CCNC(=O)N1C(c2ccccc2C(=O)OCC)=NC(=O)C1(C)C(C)C (configuration not stated)
186 to 189	COc1cccc(CNC(=O)c2nc3ccccc3c(=O)[nH]2)c1
44 to 45	COc1nc(C)nc(C(F)(F)F)c1I
88 to 90	Cc1ccc(S(=O)(=O)C(CCCCCOc2ccc(Cl)cc2)C(=O)O)cc1 (configuration not stated)
113 to 115	CCOC(=O)c1cnc2c(c(C)nc3cc(C)nn32)c1NC(C)CC (configuration not stated)
40	C=CCOC(=O)CCc1cc(C(C)(C)C)c(O)c(C(C)(C)C)c1
117 to 118	ClCc1ccc(OCc2csc(-c3ccccc3)n2)nc1
160	Cn1cncc1-c1nc(-c2cccc(Cl)c2)c2cc(C(O)(c3ccc(Cl)cc3)c3cncn3C)ccc2n1 (configuration not stated)
235 to 237	O=C1c2ccccc2C(=O)N1c1ccc(S(=O)(=O)NCCC2(C(=O)NCC(F)(F)F)c3ccccc3-c3ccccc32)cc1
101	COc1cc(C)c(C(=O)CCCCCCCCCCCCCCCCCO)c(O)c1OC
57 to 59	CC1(C)c2ccccc2[C@H]2Nc3ccccc3[C@H]21 (relative stereo)
58 to 60	Cc1cc(CCCCC(=O)O)no1
123 to 125	CN(C)c1ccc(OCc2ccncc2)cc1
76	CCCCCCCCCC(=O)Nc1ccc(C=C(C#N)C(=O)OCC)cc1
142	CCOC(=O)c1c(SCc2ccc(OC)cc2)[nH]c2cc(Cl)c(F)cc2c1=O

melting point [°C]	SMILES
154 to 155	O=C1Cc2ccccc2C(c2ccccc2)CN1 (configuration not stated)
140	CC(OC(=O)C(F)(F)F)C1CCC2C3CC=C4CC(NC(=O)C(F)(F)F)CCC4(C)C3CCC12C (configuration not stated)
155 to 157	CCOC(=O)c1cc2c(C(=O)CN(Cc3ccccc3)C(C)(C)C)ccc(OCc3ccccc3)c2[nH]1
63 to 64	CCCCCCCCOc1c(OC)cc(N)c2ncccc12
102 to 106	COc1ccc(-c2ccccc2)cc1[N+]([O-])=NC(=O)OC(C)C
105 to 107	Brc1ccc(C2NCCS2)cc1 (configuration not stated)
138 to 139	COC(=O)NCc1nc(C(C)C)c(Sc2cc(Cl)cc(Cl)c2)n1C
141	COC(=O)CCN(CC(=O)O)CC(=O)O
218 to 220	COc1ccc(-c2c(NC(=O)Nc3ccc(F)cc3F)cnc3ccc(Cl)cc23)c(O)c1OC
207 to 208	O=c1nc(-c2cccc(CNS(=O)(=O)c3ccccc3)n2)sc2ccccc12
164 to 171	COc1ncc(OC)c(NC#N)n1
112 to 113	CS(=O)(=O)N(Cc1cccnc1)c1ccc(F)cc1
102 to 104	CSc1ccc(C=C2CCc3cc(OCCn4ccnc4)ccc3C2=O)s1
204 to 205	COc1c(C#Cc2ccccc2)c(=O)c2ccc(Cl)cc2[nH]c1=O
209 to 210	COCCOc1ccc(NC=C(C#N)C(=O)Nc2cc(OC)c(Cl)cc2Cl)cc1I
201 to 203	Cc1cc(-c2sc(N3CCN(Cc4ccc(C(F)(F)F)cc4)C3=O)nc2C)on1
193 to 195	CN(Cc1cccc2c1C(=O)N(C1CCC(=O)NC1=O)C2=O)C(=O)Nc1cccc(Cl)c1 (configuration not stated)
117 to 120	Nc1cccc(OCc2nc3ccccc3s2)c1
46	FC(F)(F)c1nnc(Sc2ccc(Cl)c(Cl)c2)s1
86 to 89	Nc1nc(F)cc(OC(F)(F)F)n1
89 to 93.5	CCOC1=NCCNC(c2ccccc2)=C1
116 to 117	Cc1oc(-c2ccccc2)nc1COc1ccccc1CON=C(CCC(=O)O)c1ccccc1
152	COc1nccnc1NS(=O)(=O)c1scc(Cl)c1Cl

SMILES	melting point [°C]
CCNC(C)Cc1ccc(O)cn1 (configuration not stated)	75 to 79
CCCNC(=O)N1N=C(c2ccc(N)cc2)c2cc(Cl)ccc2CC1C (configuration not stated)	88 to 90
CN(C)Cc1nc(CO)nn1-c1ccc(Cl)cc1C(=O)c1ccccc1	198 to 200
CN1CCC(C#N)(c2ccc(Cl)cc2F)CC1	85 to 87
CN(c1ncccc1[N+](=O)[O-])C1CCN(Cc2ccccc2)CC1	92 to 95
CC(C)NCc1nc(-c2ncn3c2CN(C)C(=O)c2ccccc2-3)no1	142 to 144
C=C(C)c1cn(-c2c(Cl)cc(C(F)(F)F)cc2Cl)nc1C#N	63 to 64
